Patent publication US20250073198A1, “COMPOUNDS AND USE THEREOF FOR THE TREATMENT OF DISEASES ASSOCIATED WITH IMPAIRED ß-GALACTOSIDASE ACTIVITY” (DORPHAN SA, priority 2022, published 2025)

Tests used:
[1] = biological target: T1, cathepsin B (Sus scrofa, UniProt A1E295); assay: In-vitro enzymatic activity assay on isolated cathepsin B (pork liver homogenate, Z-FR-AMC substrate); format: biochemical; details: for IC50: ester prodrug hydrolysed with NaOH to the free acid, 1 hour at 37° C., pH 6.0, read-out: IC50, inhibition of cathepsin B (catB) activity in pork liver homogenate; for inhibitory activity against isolated catB, compared to E64c: pork liver homogenate, result in words
T1 construct: from tissue; host or cells: pork liver homogenate
Method: The ability of the compounds VRO006_hydrol, VRO047_hydrol, VRO052_hydrol, VRO059_hydrol, VRO073_hydrol, VRO109_hydrol, VRO244_hydrol, VRO001_hydrol, VRO082_hydrol, VRO035_hydrol, VRO119_hydrol, and VRO243_hydrol to inhibit isolated cathepsin B was assessed in an enzymatic assay and compared to the inhibitory activity of the prior art E64c. In this assay, the compounds VRO006, VRO042, VRO047, VRO052, VRO059, VRO073, VRO109, VRO244, VRO001, VRO082, VRO035, VRO119, and VRO243 were used and the assay was performed in the presence of NaOH, in order to simulate the ester cleavage that occurs within the gastrointestinal tract, and to release the free acid (VROxxx_hydrol compound) from the prodrug (corresponding VROxxx compound). The chemical structures of compounds […], VRO042, VRO047, VRO052, VRO059, VRO073, […] and VRO244 and their chemical names are provided in [Table 2] above. The structures of VRO001, VRO082, VRO035, VRO119 and VRO243 are provided in [Table 3] below. The cathepsin B was from pork liver homogenate.
The enzymatic assay was performed as follows. Samples of homogenized pork liver (75 mg of fresh tissue per sample) were incubated for 1 hour at 37° C. with Z—FR-AMC (benzyloxycarbonyl-L-[…]-4-methylcoumaryl-7-amide) at […] in 1 M sodium acetate pH 6.0, supplemented with 2.5 mM EDTA, 2.5 mM DTT and 0.1% Triton X-100, and graded concentrations of test substances (between 0.1 nM and […]). The stock solutions of test substances were at 20 mM in DMSO. Fluorescence was determined at 445 nm using 365 nm as the excitation wavelength.

[2] = prior art statement; cited from earlier work
[3] = including pediatric patients; cited from earlier work

| Structure (SMILES) | IC50 [1] | inhibitory activity against isolated catB, compared to E64c [1] | penetration of the blood-brain barrier [2] | toxicity for human in 3-year clinical trials [3] |
| --- | --- | --- | --- | --- |
| CC(C)CCN(C)C(=O)[C@H](CC(C)C)NC(=O)[C@H]1O[C@@H]1C(=O)O [VRO006_hydrol, (2S,3S)-3-(((S)-1-(isopentyl(methyl)amino)-4-methyl-1-oxopentan-2-yl)carbamoyl)oxirane-2-carboxylic acid] | ≤ 100 nM | – | – | – |
| COCCCNC(=O)[C@H](CC(C)C)NC(=O)[C@H]1O[C@@H]1C(=O)O [VRO042_hydrol, (2S,3S)-3-(((S)-1-((3-3-methoxypropyl)amino)-4-methyl-1-oxopentan-2-yl)carbamoyl)oxirane-2-carboxylic acid] | ≤ 100 nM | maintaining efficient inhibition of catB | – | – |
| CCOC(=O)[C@H]1O[C@@H]1C(=O)N[C@@H](CC(C)C)C(=O)N(C)CCC(C)C [VRO006, Ethyl (2S,3S)-3-(((S)-1-(isopentyl(methyl)amino)-4-methyl-1-oxopentan-2-yl)carbamoyl)oxirane-2-carboxylate] | – | quite similar to the one of E64c | – | – |
| CC(C)C[C@H](NC(=O)[C@H]1O[C@@H]1C(=O)O)C(=O)NCc1ccccc1F [VRO073_hydrol, (2S,3S)-3-(((S)-1-((2-fluorobenzyl)amino)-4-methyl-1-oxopentan-2-yl)carbamoyl)oxirane-2-carboxylic acid] | ≤ 100 nM | only slightly reduced | – | – |
| CC(C)CCN(C)C(=O)C(CC(F)(F)F)NC(=O)C1OC1C(=O)O (stereo not shown) [VRO243_hydrol] | > 100 nM | drastic loss of activity | – | – |
| CC(C)CC(NC(=O)C1OC1C(=O)O)C(=O)NCCC(F)(F)F (stereo not shown) [VRO035_hydrol] | > 100 nM | inhibitory activity was lost | – | – |
| CC(C)CCNC(=O)C(CC(C)C)N(C)C(=O)C1OC1C(=O)O (stereo not shown) [VRO001_hydrol] | > 100 nM | unable to inhibit catB | – | – |
| CCOC(=O)[C@H]1O[C@@H]1C(=O)N[C@@H](CC(C)C)C(=O)NCCC(C)C [Compound E64d] | – | – | low penetration of the blood-brain barrier | non-toxicity for human |
| CC(C)CCNC(=O)C(Cc1ccccn1)NC(=O)C1OC1C(=O)O (stereo not shown) [VRO119_hydrol] | > 100 nM | not tolerated | – | – |
| COCC(NC(=O)C1OC1C(=O)O)C(=O)NCCC(C)C (stereo not shown) [VRO082_hydrol] | > 100 nM | did not allow to maintain the inhibitory activity | – | – |
| COCCNC(=O)[C@H](CC(C)C)NC(=O)[C@H]1O[C@@H]1C(=O)O [VRO047_hydrol, (2S,3S)-3-(((S)-1-((2-2-methoxyethyl)amino)-4-methyl-1-oxopentan-2-yl)carbamoyl)oxirane-2-carboxylic acid] | ≤ 100 nM | almost the same activity as E64c | – | – |
| O=C(NCc1ccccc1F)[C@H](CC(F)(F)F)NC(=O)[C@H]1O[C@@H]1C(=O)O [VRO244_hydrol, (2S,3S)-3-(((S)-4,4,4-trifluoro-1-((2-fluorobenzyl)amino)-1-oxobutan-2-yl)carbamoyl)oxirane-2-carboxylic acid] | ≤ 100 nM | only slightly lower than the prior art E64c | – | – |
| CC(C)CCNC(=O)[C@H](CC(F)(F)F)NC(=O)[C@H]1O[C@@H]1C(=O)O [VRO109_hydrol, (2S,3S)-3-(((S)-4,4,4-trifluoro-1-(isopentylamino)-1-oxobutan-2-yl)carbamoyl)oxirane-2-carboxylic acid] | ≤ 100 nM | increased compared to E64c | – | – |
| CC(C)C[C@H](NC(=O)[C@H]1O[C@@H]1C(=O)O)C(=O)NCCCN1CCCCC1 [VRO059_hydrol, (2S,3S)-3-(((S)-4-methyl-1-oxo-1-((3-(piperidin-1-yl)propyl)amino)pentan-2-yl)carbamoyl)oxirane-2-carboxylic acid] | ≤ 100 nM | almost similar to E64c | – | – |
| CC(C)C[C@H](NC(=O)[C@H]1O[C@@H]1C(=O)O)C(=O)NCCc1ccccn1 [VRO052_hydrol, (2S,3S)-3-(((S)-4-methyl-1-oxo-1-((2-(pyridin-2-yl)ethyl)amino)pentan-2-yl)carbamoyl)oxirane-2-carboxylic acid] | ≤ 100 nM | only slightly reduced | – | – |
